Data as given in patent publication US20200107546A1, “METHODS AND COMPOSITIONS FOR CONTROLLING UNDESIRED VEGETATION SUCH AS INVASIVE ANNUAL GRASSES” (priority 2018, published 2020).

How the values were obtained:
[1] = tested on: Bromus tectorum (cheatgrass); experiment: Example 2 post-emergence field application, control of Bromus tectorum; type: in vivo; details: Plateau 7 oz/A, Esplanade 200SC 7 oz/A, Raptor 6 oz/A, 0.25% NIS
Protocol: (§1) In the following Examples, desirable perennial grasses were treated to control the invasive annual grass Bromus tectorum (cheatgrass) either pre-emergence or post-emergence with either indaziflam, imazapic, imazamox, glyphosate, or combinations thereof. Imazapic, glyphosate, and combinations comprising either imazapic and/or glyphosate were used for purposes of comparison.
(§2) Table 3 summarizes the herbicidal efficacies (% Control), damage caused to desired perennial grasses (% Injury), and cover (% Cover) when the active ingredients of Table 1 were applied to perennial grasses of species Bromus inermis (smooth brome) and Agropyron smithii (western wheatgrass).
(§3) All treatments include 0.25% NIS.
(§4) Imazapic, indaziflam, imazamox, and a combination of indaziflam and imazamox were applied via a backpack research sprayer to perennial grasses to control Bromus tectorum post-emergence.

[2] = tested on: perennial grasses Bromus inermis (smooth brome) and Agropyron smithii (western wheatgrass); experiment: Example 2 post-emergence field application, injury and cover of desirable perennial grasses; type: in vivo
Protocol: as §1, §2, §3, §4

[3] = tested on: Bromus tectorum (cheatgrass); experiment: Example 3 pre-emergence field application, control and biomass of Bromus tectorum; type: in vivo; details: for % Control Bromus tectorum / Biomass (kg/ha) Bromus tectorum: first year after treatment, 0.25% NIS
Protocol: as §1
(§5) Table 3 summarizes the herbicidal efficacies (% Control) and damage caused to desired perennial grasses (% Injury) during the first year after the active ingredients of Table 1 were applied to perennial grasses of species Hesperostipa comata (needle-and-thread), Aristida purpurea (purple three-awn) and Bouteloua gracilis (blue grama). Table 4 further sets forth the biomass in kilograms per hectare (kg/ha) of Bromus tectorum and perennial grass measured in the first year after treatment.
as §3
(§6) Imazapic, indaziflam, and a combination of indaziflam and imazamox were applied via a backpack research sprayer to desirable perennial grasses to control unwanted Bromus tectorum pre-emergence.

[4] = tested on: perennial grasses Hesperostipa comata (needle-and-thread), Aristida purpurea (purple three-awn) and Bouteloua gracilis (blue grama); experiment: Example 3 pre-emergence field application, injury and biomass of desirable perennial grasses; type: in vivo
Protocol: as §1, §5, §3, §6

[5] = Soil half-life of herbicides
Excerpt: As used herein, “short-residual” denotes an herbicide having a median soil half-life of no greater than 50 days, such as less than 40 days or less than 30 days.
Imazamox is a short-residual imidazolinone herbicide having a soil half-life of about 20-30 days. Additionally, imazamethabenz methyl is a short-residual imidazolinone herbicide having a soil half-life of about 25-36 days.

[6] = Year 1 after treatment, post-emergence, Plateau 7 oz/A, Esplanade 200SC 7 oz/A, Raptor 6 oz/A, 0.25% NIS
[7] = Year 2 after treatment, post-emergence, Plateau 7 oz/A, Esplanade 200SC 7 oz/A, Raptor 6 oz/A, 0.25% NIS
[8] = Plateau 7 oz/A, Esplanade 200SC 7 oz/A, Raptor 6 oz/A
[9] = pre-emergence, first year after treatment, Esplanade 200SC 3.5 oz/A, 0.25% NIS
[10] = pre-emergence, first year after treatment, Esplanade 200SC 5 oz/A, 0.25% NIS
[11] = pre-emergence, first year after treatment, Plateau 7 oz/A, Esplanade 200SC 7 oz/A, Raptor 6 oz/A, 0.25% NIS
[12] = in vivo, 1 year after treatment

SMILES | % Control Bromus tectorum ([1]; Year 1 after treatment) [%] | % Control Bromus tectorum ([1]; Year 2 after treatment) [%] | % Injury Perennial grasses [2, 6] [%] | % Cover Perennial grasses [2, 7] [%] | % Injury Perennial grasses [2, 7] [%] | % Control Bromus tectorum [3, 8] [%] | Biomass (kg/ha) Bromus tectorum [3, 8] [kg/ha] | Biomass (kg/ha) Perennial grasses [4, 11] [kg/ha] | Median soil half-life [5] [days] | also measured
Cc1ccc2c(c1)[C@H](Nc1nc(N)nc(C(C)F)n1)[C@@H](C)C2 (mixture of isomers) [Indaziflam, N2-[(1R,2S)-2,3-dihydro-2,6-dimethyl-1H-inden-1-yl]-6-[(1RS)-1-fluoroethyl]-1,3,5-triazine-2,4-diamine] | 37 | 93 | 0 | 72 | 0 | 80 | 32 | 75 | – | % Control Bromus tectorum ([3]; Esplanade 200SC 3.5 oz/A): 72%; Biomass (kg/ha) Bromus tectorum ([3]; Esplanade 200SC 3.5 oz/A): 83 kg/ha; % Control Bromus tectorum ([3]; Esplanade 200SC 5 oz/A): 82%; Biomass (kg/ha) Bromus tectorum ([3]; Esplanade 200SC 5 oz/A): 18 kg/ha; control of invasive Bromus tectorum ([3]; indaziflam alone, span over the rates 3.5, 5 and 7 oz/A): 72-82%; % Injury Perennial grasses [4, 9]: 10%; Biomass (kg/ha) Perennial grasses [4, 9]: 54 kg/ha; % Injury Perennial grasses [4, 10]: 0%; Biomass (kg/ha) Perennial grasses [4, 10]: 63 kg/ha; % Injury Perennial grasses [4, 11]: 5%; Perennial grass biomass ([4]; pre-emergence, indaziflam alone, span over the rates 3.5, 5 and 7 oz/A): 54-75 kg/ha
COCc1cnc(C2=NC(C)(C(C)C)C(=O)N2)c(C(=O)O)c1 (racemic) [Imazamox, 2-[(RS)-4-isopropyl-4-methyl-5-oxo-2-imidazolin-2-yl]-5-methoxymethylnicotinic acid] | 98 | 20 | 0 | 63 | 0 | – | – | – | – | –
Cc1cnc(C2=NC(=O)C(C)(C(C)C)N2)c(C(=O)O)c1 (stereo not drawn) [Imazapic] | 97 | 77 | – | 72 | – | 90 | 7 | 91 | 120 | % Injury Perennial grasses [2, 12]: 15%; % Injury Perennial grasses ([2]; in vivo, 2 year after treatment): 1%; % Injury Perennial grasses [4, 12]: 10%
CC(C)C1(C)N=C(c2ncccc2C(=O)O)NC1=O (stereo not drawn) [Imazapyr] | – | – | – | – | – | – | – | – | 83 | –
CCc1cnc(C2=NC(C)(C(C)C)C(=O)N2)c(C(=O)O)c1 (stereo not drawn) [Imazethapyr] | – | – | – | – | – | – | – | – | 75 | –
